The source of these data is patent US8299048B2, “Hexahydrocyclopentyl[f]indazole sulfonamides and derivatives thereof as selective glucocorticoid receptor modulators” (Merck Sharp & Dohme Corp., priority 2008, dated 2012).

SMILES strings stand for the structures.

Assay [1] deals with T1, human GR (Homo sapiens, UniProt P04150).
T1 sequence (P04150 1-777): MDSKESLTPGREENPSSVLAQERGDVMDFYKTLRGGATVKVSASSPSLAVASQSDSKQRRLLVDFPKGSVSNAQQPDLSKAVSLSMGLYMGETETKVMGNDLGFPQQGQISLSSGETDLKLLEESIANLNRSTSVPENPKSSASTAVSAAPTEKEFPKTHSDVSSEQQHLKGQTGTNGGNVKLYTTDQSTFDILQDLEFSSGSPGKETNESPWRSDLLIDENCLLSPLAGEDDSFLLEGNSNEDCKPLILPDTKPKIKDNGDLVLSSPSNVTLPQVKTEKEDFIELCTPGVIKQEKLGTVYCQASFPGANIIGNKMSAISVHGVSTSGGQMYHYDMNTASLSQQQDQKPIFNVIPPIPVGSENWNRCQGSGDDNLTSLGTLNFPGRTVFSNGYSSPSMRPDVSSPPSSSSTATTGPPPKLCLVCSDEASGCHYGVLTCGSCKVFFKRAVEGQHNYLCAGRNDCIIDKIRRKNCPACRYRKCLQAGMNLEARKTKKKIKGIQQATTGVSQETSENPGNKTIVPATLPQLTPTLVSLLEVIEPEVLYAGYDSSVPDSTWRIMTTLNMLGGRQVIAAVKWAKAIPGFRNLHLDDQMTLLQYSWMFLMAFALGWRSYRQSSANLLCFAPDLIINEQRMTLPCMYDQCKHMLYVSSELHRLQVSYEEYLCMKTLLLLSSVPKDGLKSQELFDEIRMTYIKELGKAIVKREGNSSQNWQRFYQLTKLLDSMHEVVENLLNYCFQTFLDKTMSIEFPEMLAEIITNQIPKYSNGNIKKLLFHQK
Nature of the assay: Trans-Activation Modulation of Glucocorticoid Receptor (GRAMMER), MMTV-LUC reporter, agonist mode. The format is cell-based. Set-up: endogenous in cells. Conditions: for Emax: A549, A549 cells, maximum activity, read-out: Transactivation A549 Cells GRAMMER Emax; for EC50: A549 cells, inflection point, read-out: Transactivation A549 Cells GRAMMER IP. The essentials: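 Readout is luciferase from a modified MMTV LTR promoter after 24 h compound exposure alongside 10 nM dexamethasone (100% activity reference), DMSO ≤1%.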

The target of assay [2] is T1, human GR. Nature of the assay: Transrepression Assay (GITAR), TNFα-β-lactamase reporter in U937 cells. The format is cell-based. Set-up: U937 cells contain an endogenous glucocorticoid receptor (GR); endogenous in cells; host or cells: U937 cells stably transfected with the TNF-alpha promoter/beta-lactamase reporter. The following applies: for GITAR > GRAMM % SEP: GITAR Emax minus GRAMMER Emax; for EC50: U937 cells, inflection point, read-out: Transrepression U937 Cells GITAR IP. The essentials:
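First, U937 reporter cells (TNF-α promoter–β-lactamase, native GR) received compound for 30–45 min at 37 °C. Next, PMA (5 ng/ml) and LPS (100 ng/ml) final were added for about 18 hr. Finally, CCF2-AM loading gave the read-out, with 100 nM dexamethasone as 100%.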

The mark [3] stands for this setting: U-937, U937 cells, maximum activity, read-out: Transrepression U937 Cells GITAR Emax.
The mark [4] stands for this setting: U-937, activity repressed by 100 nM dexamethasone alone set as 100%, read-out: maximal activity in the transrepression (GITAR) assay.

Regarding `C[C@]12Cc3cnn(-c4ccc(F)cc4)c3C=C1CC[C@@H]2CN(CC(OS(=O)(=O)CC(F)(F)F)c1ccccn1)S(=O)(=O)CC(F)(F)F` (stereo partly drawn) [Example 145, 2-{{[(4αR,5S)-1-(4-fluorophenyl)-4α-methyl-1,4,4α,5,6,7-hexahydrocyclopenta[f]indazol-5-yl]methyl}[(2,2,2-trifluoroethyl)sulfonyl]amino}-1-pyridin-2-ylethyl 2,2,2-trifluoroethanesulfonate], the results for the Emax on human GR [1], at human GR [2] (setting [3]) and at human GR [2] (setting [4]) were 60.2%, 93.5% and over 5%, respectively. In addition, the EC50 came out at 0.204 µM on human GR [1] and 0.196 µM at human GR [2]. The “GITAR > GRAMM % SEP” value on human GR [2] came out at 33.3%.
Take `CC(CN(C[C@H]1CCC2=Cc3c(cnn3-c3ccc(F)cc3)C[C@@]21C)S(=O)(=O)CC(F)(F)F)c1cccnc1` (stereo partly drawn) [Example 146, 2,2,2-trifluoro-N-{[(4αR,5S)-1-(4-fluorophenyl)-4α-methyl-1,4,4α,5,6,7-hexahydrocyclopenta[f]indazol-5-yl]methyl}-N-(2-pyridin-3-ylpropyl)ethanesulfonamide]: the results for the Emax on human GR [1], on human GR [2] (setting [3]) and on human GR [2] (setting [4]) were 91.5%, 93.3% and over 5%, respectively. In addition, the EC50 turned out to be 0.263 µM on human GR [1] and 0.308 µM on human GR [2]. Moreover, on human GR [2], the “GITAR > GRAMM % SEP” value is recorded as 1.8%.
Take `C[C@]12Cc3cnn(-c4ccc(F)cc4)c3C=C1CC[C@@H]2CN(CCC(N)C(F)(F)F)S(=O)(=O)CC(F)(F)F` (stereo partly drawn) [Example 147, N-(3-amino-4,4,4-trifluorobutyl)-2,2,2-trifluoro-N-{[(4aR,5S)-1-(4-fluorophenyl)-4α-methyl-1,4,4α,5,6,7-hexahydrocyclopenta[f]indazol-5-yl]methyl}ethanesulfonamide]: the Emax is 78.1% on human GR [1], 78.4% on human GR [2] (setting [3]) and over 5% at human GR [2] (setting [4]). Besides, the EC50 at human GR [1] was 0.475 µM; at human GR [2], 0.708 µM. At human GR [2], the “GITAR > GRAMM % SEP” value is given as 0.3%.
As for `CCCS(=O)(=O)N(CC(O)C(F)(F)F)C[C@H]1CCC2=Cc3c(cnn3-c3ccc(F)cc3)C[C@@]21C` (stereo partly drawn) [Example 148, N-{[(4αR,5S)-1-(4-fluorophenyl)-4α-methyl-1,4,4α,5,6,7-hexahydrocyclopenta[f]indazol-5-yl]methyl}-N-(3,3,3-trifluoro-2-hydroxypropyl)propane-1-sulfonamide], the Emax on human GR [1] is 62.6%; at human GR [2] (setting [3]), 77.6%; on human GR [2] (setting [4]), over 5%. Moreover, the figures for the EC50 on human GR [1] and at human GR [2] were 0.403 µM and 0.858 µM, respectively. The “GITAR > GRAMM % SEP” value on human GR [2] was 14.9%.
As for `C[C@]12Cc3cnn(-c4ccc(F)cc4)c3C=C1CC[C@@H]2CN(CC(O)C(F)(F)F)S(=O)(=O)Cc1cccnc1` (stereo partly drawn) [Example 149, N-{[(4αR,5S)-1-(4-fluorophenyl)-4α-methyl-1,4,4α,5,6,7-hexahydrocyclopenta[f]indazol-5-yl]methyl}-1-pyridin-3-yl-N-(3,3,3-trifluoro-2-hydroxypropyl)methanesulfonamide], the Emax at human GR [1] was 32.4%; on human GR [2] (setting [3]), 77.1%; at human GR [2] (setting [4]), over 5%. For the same molecule, the values for the EC50 on human GR [1] and on human GR [2] were 0.351 µM and 0.25 µM, respectively. The “GITAR > GRAMM % SEP” value at human GR [2] turned out to be 44.7%.
As to `Cn1cc(S(=O)(=O)N(CCc2ccccn2)C[C@H]2CCC3=Cc4c(cnn4-c4ccc(F)cc4)C[C@@]32C)c(C(F)(F)F)n1` [Example 150, N-{[(4αR,5S)-1-(4-fluorophenyl)-4α-methyl-1,4,4α,5,6,7-hexahydrocyclopenta[f]indazol-5-yl]methyl}-1-methyl-N-(2-pyridin-2-ylethyl)-3-(trifluoromethyl)-1H-pyrazole-4-sulfonamide], the Emax at human GR [1] was 45.6%; on human GR [2] (setting [3]), 79.3%; on human GR [2] (setting [4]) it was over 5%. Moreover, the EC50 was found to be 0.346 µM on human GR [1] and 0.376 µM on human GR [2]. Further, the “GITAR > GRAMM % SEP” value at human GR [2] is given as 33.7%.
In the case of `CCCS(=O)(=O)N(CCc1ccccn1)C[C@H]1CCC2=Cc3c(cnn3-c3ccc(F)cc3)C[C@@]21C` [Example 151, N-{[(4αR,5S)-1-(4-fluorophenyl)-4α-methyl-1,4,4α,5,6,7-hexahydrocyclopenta[f]indazol-5-yl]methyl}-N-(2-pyridin-2-ylethyl)propane-1-sulfonamide], the Emax on human GR [1] is 76%; on human GR [2] (setting [3]), 83.3%; on human GR [2] (setting [4]), over 5%. In addition, the results for the EC50 at human GR [1] and at human GR [2] were 0.421 µM and 0.551 µM, respectively. On human GR [2], the “GITAR > GRAMM % SEP” value is on record as 7.2%.
Turning to `C[C@]12Cc3cnn(-c4ccc(F)cc4)c3C=C1CC[C@@H]2CN(CCc1ccccn1)S(=O)(=O)CCN1C(=O)c2ccccc2C1=O` [Example 152, 2-(1,3-dioxo-1,3-dihydro-2H-isoindol-2-yl)-N-{[(4αR,5S)-1-(4-fluorophenyl)-4α-methyl-1,4,4α,5,6,7-hexahydrocyclopenta[f]indazol-5-yl]methyl}-N-(2-pyridin-2-ylethyl)ethanesulfonamide], the Emax was 2% on human GR [1], 23% on human GR [2] (setting [3]) and over 5% on human GR [2] (setting [4]). Moreover, the values for the EC50 at human GR [1] and on human GR [2] were 0.0639 µM and 1.03 µM, respectively. The “GITAR > GRAMM % SEP” value at human GR [2] came out at 21.0%.
`C[C@]12Cc3cnn(-c4ccc(F)cc4)c3C=C1CC[C@@H]2CN(CCc1ccccn1)S(=O)(=O)Cc1ccccc1C(F)(F)F` [Example 153, N-{[(4αR,5S)-1-(4-fluorophenyl)-4α-methyl-1,4,4α,5,6,7-hexahydrocyclopenta[f]indazol-5-yl]methyl}-N-(2-pyridin-2-ylethyl)-1-[2-(trifluoromethyl)phenyl]methanesulfonamide]: the Emax at human GR [1] was 15.2%; on human GR [2] (setting [3]) it was 52.4%; on human GR [2] (setting [4]) it was over 5%. Moreover, the EC50 was found to be 0.315 µM on human GR [1] and 0.263 µM on human GR [2]. Besides, at human GR [2], the “GITAR > GRAMM % SEP” value is 37.2%.
As for `C[C@]12Cc3cnn(-c4ccc(F)cc4)c3C=C1CC[C@@H]2CN(CC(O)C(F)F)S(=O)(=O)Cc1cccnc1` (stereo partly drawn) [Example 154, N-(3,3-difluoro-2-hydroxypropyl)-N-{[(4αR,5S)-1-(4-fluorophenyl)-4α-methyl-1,4,4α,5,6,7-hexahydrocyclopenta[f]indazol-5-yl]methyl}-1-pyridin-3-ylmethanesulfonamide], the Emax is 17.9% at human GR [1], 66.5% at human GR [2] (setting [3]) and over 5% on human GR [2] (setting [4]). In addition, the EC50 on human GR [1] came to 0.509 µM; on human GR [2], 0.616 µM. Further, on human GR [2], the “GITAR > GRAMM % SEP” value was found to be 48.7%.
On to `CCCS(=O)(=O)N(CC(O)C(F)F)C[C@H]1CCC2=Cc3c(cnn3-c3ccc(F)cc3)C[C@@]21C` (stereo partly drawn) [Example 155, N-(3,3-difluoro-2-hydroxypropyl)-N-{[(4αR,5S)-1-(4-fluorophenyl)-4α-methyl-1,4,4α,5,6,7-hexahydrocyclopenta[f]indazol-5-yl]methyl}propane-1-sulfonamide], for which the Emax is 29% on human GR [1], 61.3% on human GR [2] (setting [3]) and over 5% at human GR [2] (setting [4]). For the same molecule, the results for the EC50 on human GR [1] and at human GR [2] were 0.989 µM and 1.09 µM, respectively. Besides, at human GR [2], the “GITAR > GRAMM % SEP” value is given as 32.2%.
Consider `Cn1cc(S(=O)(=O)N(CC(O)C(F)F)C[C@H]2CCC3=Cc4c(cnn4-c4ccc(F)cc4)C[C@@]32C)c(C(F)(F)F)n1` (stereo partly drawn) [Example 156, N-(3,3-difluoro-2-hydroxypropyl)-N-{[(4αR,5S)-1-(4-fluorophenyl)-4α-methyl-1,4,4α,5,6,7-hexahydrocyclopenta[f]indazol-5-yl]methyl}-1-methyl-3-(trifluoromethyl)-1H-pyrazole-4-sulfonamide], for which the Emax is 4.5% at human GR [1], 19.5% at human GR [2] (setting [3]) and over 5% on human GR [2] (setting [4]). Moreover, the EC50 at human GR [1] stood at 0.193 µM; at human GR [2], 0.229 µM. Besides, on human GR [2], the “GITAR > GRAMM % SEP” value turned out to be 15.0%.
